System: Hepatitis C replicon in Huh-7 cells
Assay: HCV replicon replication assay (NPT ELISA)
Assay type: cell-based
Conditions: Hepatitis C virus, Huh-7, 72 h
Protocol: Compounds claimed herein are tested for the ability to inhibit viral replication of the Hepatitis C replicon in cultured cells in which the HCV replicon construct has been incorporated. The HCV replicon system was described by Bartenschlager, et. al (Science, 285, pp. 110-113 (1999)). The replicon system is predictive of in vivo anti-HCV activity; compounds that are active in humans uniformly evidence activity in the replicon assay.
In this assay HCV replicon containing cells are treated with different concentrations of the test compound to ascertain the ability of the test compound to suppress replication of the HCV replicon. As a positive control, HCV replicon-containing cells are treated with different concentrations of interferon alpha, a known inhibitor of HCV replication. The replicon assay system includes Neomycin Phosphotransferase (NPT) as a component of the replicon itself in order to detect the transcription of replicon gene products in the host cell. Cells in which the HCV replicon is actively replicating have high levels of NPT; the level of NPT is proportional to HCV replication. […] The NPT level of each sample is measured using a captured ELISA.
A protocol for testing compounds for the ability to inhibit viral replication of the Hepatitis C replicon cultured cells in which the replicon construct has been incorporated, follows.
The HCV replicon contains, 5′-3′, the HCV-IRES, the neomycin phosphotransferase (neo) gene, the IRES of encephalomyocarditis virus, which directs translation of HCV sequences NS3 to NS5B, and the 3′-NTR. The sequence of the HCV replicon has been deposited in GenBank (Accession no. AJ242652).
The replicon is transfected into Huh-7 cells using standard methods such as electroporation.
The cells are then seeded onto 96-well plates at a density of 6000-7500 cells/100 microliters/well (6-7.5×10^5 cells/10 ml/plate). The plates are then incubated at 37° C. in a 5% CO2 incubator.
HCV replicon-containing cells are rinsed with once PBS once; 2 mls of trypsin are then added. Cells are incubated at 37° C. in a 5% CO2 incubator for 3-5 minutes. 10 mls of complete medium is added to stop the reaction. Cells are blown gently, put into a 15 ml tube, and spun at 1200 rpm for four minutes. The trypsin/medium solution is removed and 5 mls of medium (500 ml DMEM (high glucose)) from BRL catalog #12430-054; 50 mls 10% FBS, 5% Geneticin G418 (50 mg/ml, BRL catalog #10131-035), 5 ml MEM non-essential amino acids (100×BRL #11140-050) and 5 ml pen-strep (BRL #15140-148) is added. The cells and media are mixed carefully
Cells are plated with screening medium (500 ml DMEM (BRL #21063-029), 50 ml FBS (BRL #10082-147) and 5 ml MEM non-essential amino acid (BRL #11140-050) at 6000-7500 fcells/100 μl/well of 96 well plate (6-7.5×10^5 cells/10 ml/plate). Plates are placed into 37° C. 5% CO2 incubator overnight.
The following morning, drugs (test compounds or interferon alpha) are diluted in 96 well U bottom plates with media or DMSO/media, depending on the final concentration chosen for screening. Generally for 6 concentrations of each test compounds ranging from 10 micromolar to 0.03 micromolar are applied. 100 μl of the test compound dilution is placed in wells of the 96 well plate containing the HCV replicon cells. Media without drug is added to some wells as a negative controls. DMSO is known to affect cell growth. Therefore, if drugs diluted in DMSO are used, all wells, including negative control (media only) and positive control (interferon alpha) wells, must contain the same concentration of DMSO, for single dose screening. The plates are incubated at 37° C. in a humidified 5% CO2 environment for three days.
On day four, the NTPII assay is quantitated. The medium is poured from the plates and the plates are washed once in 200 μl of PBS. The PBS is then decanted and the plates tapped in a paper towel to remove any remaining PBS. […]

Row | SMILES | EC50 [µM]
1 | C=CC1CC1(NC(=O)[C@@H]1C[C@@H](Oc2cc(-c3ccccc3)nc3cc(OC)ccc23)CN1C(=O)[C@@H](CC(=O)N1CCC(CNC(=O)OC(C)(C)C)CC1)C(C)(C)C)C(=O)O (stereo partly drawn) [Compound 46, 1-((2S,4R)-1-((S)-4-(4-((tert-butoxycarbonylamino)methyl)piperidin-1-yl)-2-tert-butyl-4-oxobutanoyl)-4-(7-methoxy-2-phenylquinolin-4-yloxy)pyrrolidine-2-carboxamido)-2-vinylcyclopropanecarboxylic acid] | > 10
2 | C=CC1CC1(NC(=O)[C@@H]1C[C@@H](Oc2cc(-c3ccccc3)nc3cc(OC)ccc23)CN1C(=O)[C@@H](CC(=O)N1CCCCC1)C(C)(C)C)C(=O)NS(=O)(=O)C1CC1 (stereo partly drawn) [Compound 49, (2S,4R)-1-((S)-2-tert-butyl-4-oxo-4-(piperidin-1-yl)butanoyl)-N-(1-(cyclopropylsulfonylcarbamoyl)-2-vinylcyclopropyl)-4-(7-methoxy-2-phenylquinolin-4-yloxy)pyrrolidine-2-carboxamide] | < 0.1
3 | C=CC1CC1(NC(=O)[C@@H]1C[C@@H](Oc2cc(-c3ccccc3)nc3cc(OC)ccc23)CN1C(=O)[C@@H](CC(=O)N1CCc2ccccc2C1)C(C)(C)C)C(=O)OCC (stereo partly drawn) [Compound 51, ethyl 1-((2S,4R)-1-((S)-2-tert-butyl-4-(3,4-dihydroisoquinolin-2(1H)-yl)-4-oxobutanoyl)-4-(7-methoxy-2-phenylquinolin-4-yloxy)pyrrolidine-2-carboxamido)-2-vinylcyclopropanecarboxylate] | > 10
4 | COc1cc(O[C@@H]2C[C@H]3C(=O)N[C@]4(C(=O)O)C[C@H]4/C=C\CCCCC[C@H](CC(=O)N4CCCCC4)C(=O)N3C2)c2ccc(-c3ccccc3)nc2c1 [Compound 52, (2R,6R,13aS,14aR,16aS,Z)-2-(7-methoxy-2-phenylquinolin-4-yloxy)-5,16-dioxo-6-(2-oxo-2-(piperidin-1-yl)ethyl)-1,2,3,5,6,7,8,9,10,11,13a,14,14a,15,16,16a-hexahydrocyclopropa[e]pyrrolo[1,2-a] [1,4]diazacyclopentadecine-14a-carboxylic acid] | > 10
5 | C=CC1CC1(NC(=O)[C@@H]1C[C@@H](Oc2cc(-c3ccccc3)nc3cc(OC)ccc23)CN1C(=O)[C@@H](CC(=O)N1CCCc2ccccc21)C(C)(C)C)C(=O)O (stereo partly drawn) [Compound 56, 1-((2S,4R)-1-((S)-2-tert-butyl-4-(3,4-dihydroquinolin-1(2H)-yl)-4-oxobutanoyl)-4-(7-methoxy-2-phenylquinolin-4-yloxy)pyrrolidine-2-carboxamido)-2-vinylcyclopropanecarboxylic acid] | 1 to 10
6 | C=CC1CC1(NC(=O)[C@@H]1C[C@@H](Oc2cc(-c3ccccc3)nc3cc(OC)ccc23)CN1C(=O)[C@@H](CC(=O)N1CCc2ccccc2C1)C(C)(C)C)C(=O)O (stereo partly drawn) [Compound 57, 1-((2S,4R)-1-((S)-2-tert-butyl-4-(3,4-dihydroisoquinolin-2(1H)-yl)-4-oxobutanoyl)-4-(7-methoxy-2-phenylquinolin-4-yloxy)pyrrolidine-2-carboxamido)-2-vinylcyclopropanecarboxylic acid] | > 10
7 | COc1ccc2c(O[C@@H]3C[C@H]4C(=O)N[C@]5(C(=O)NS(=O)(=O)C6CC6)C[C@H]5/C=C\CCCCC[C@H](CC(=O)N5CCCCC5)C(=O)N4C3)cc(-c3ccccc3)nc2c1 [Compound 58, (2R,6R,13aS,14aR,16aS,Z)-N-(cyclopropylsulfonyl)-2-(7-methoxy-2-phenylquinolin-4-yloxy)-5,16-dioxo-6-(2-oxo-2-(piperidin-1-yl)ethyl)-1,2,3,5,6,7,8,9,10,11,13a,14,14a,15,16,16a-hexadecahydrocyclopropa[e]pyrrolo[1,2-a] [1,4]diazacyclopentadecine-14a-carboxamide] | < 0.1
8 | COc1ccc2c(O[C@@H]3C[C@H]4C(=O)N[C@@]5(C(=O)NS(=O)(=O)C6CC6)C[C@@H]5/C=C\CCCCC[C@H](CC(=O)N5CCCCC5)C(=O)N4C3)cc(-c3ccccc3)nc2c1 [Compound 59, (2R,6R,13aR,14aS,16aS,Z)-N-(cyclopropylsulfonyl)-2-(7-methoxy-2-phenylquinolin-4-yloxy)-5,16-dioxo-6-(2-oxo-2-(piperidin-1-yl)ethyl)-1,2,3,5,6,7,8,9,10,11,13a,14,14a,15,16,16a-hexadecahydrocyclopropa[e]pyrrolo[1,2-a] [1,4]diazacyclopentadecine-14a-carboxamide] | < 0.1
9 | C=C[C@@H]1C[C@]1(NC(=O)[C@@H]1C[C@@H](Oc2cc(-c3ccccc3)nc3cc(OC)ccc23)CN1C(=O)[C@@H](CC(=O)N1CCCCC1)C(C)(C)C)C(=O)NS(=O)(=O)C1CC1 [Compound 60, (2S,4R)-1-((S)-2-tert-butyl-4-oxo-4-(piperidin-1-yl)butanoyl)-N-((1R,2S)-1-(cyclopropylsulfonylcarbamoyl)-2-vinylcyclopropyl)-4-(7-methoxy-2-phenylquinolin-4-yloxy)pyrrolidine-2-carboxamide] | < 0.1

From US9233136B2, “4-amino-4-oxobutanoyl peptides as inhibitors of viral replication” (Achillion Pharmaceuticals, Inc., priority 2006, dated 2016)
